Experimental findings from US8669255B2, “Substituted octahydropyrrolo[1,2-a]pyrazines as calcium channel blockers” (AbbVie Inc., priority 2011, dated 2014) are described below.

This assay deals with neuropathic pain (chronic constriction injury, CCI). Briefly: In vivo assessment of analgesic effect against neuropathic pain (Bennett model, chronic constriction injury, tactile allodynia with von Frey filaments). The conditions noted are these: Rattus norvegicus, po, 1 h, male Sprague Dawley rats, 10 mg/kg orally, mechanical allodynia 60 minutes following administration, percentage of maximum possible effect from log g PWT, read-out: % MPE. As for the experimental part: (ii) Vivo Assessment of Analgesic Effect Against Neuropathic Pain (Bennett Model)
Animals were prepared for testing, by use of a surgical procedure that induces neuropathic pain in one paw. IACUC guidelines for rodent survival surgery were followed. All surgical procedures were conducted on a clean, uncluttered surgical station. The area was wiped with a 70% ethanol solution before and after use. All instruments were sterilized by either autoclave or chemical sterilant (such as 2% glutaraldehyde>10 hours). Surgeons wore sterile gloves (for the initial procedure), clean lab coat or scrubs, hairnet or cap, and a half-mask respirator (when not working under a hood). Surgeons thoroughly washed their hands prior to donning sterile gloves. Gloves were disinfected in-between animals by cleansing with povidone iodine, chlorhexidine or 70% alcohol for at least 30 seconds. If multiple surgeries were performed, the instruments were cleaned and sterilized between procedures with hot glass beads (>10 seconds). To prevent thermal or chemical burns, the instruments were cooled by rinsing in sterile saline before use.
Male, Sprague Dawley® rats, 175-200 g were used for surgeries. To minimize post-operative dehydration/maintain blood volume during the surgery, warmed sterile saline or Lactate Ringers solution at 10-15 mL/kg was administered subcutaneously immediately before or after surgery. This facilitates better renal function and presumably anesthesia product excretion post surgery. For all surgical procedures, anesthesia was induced with 4-5% isoflurane. Anesthesia was maintained during surgery with 1-3% isoflurane. Following induction, the surgical site was carefully shaved and the exposed area was aseptically prepared with povidone-iodine scrub solution and 70% ethanol 2-3 times.
Chronic constriction injury (CCI), a model of neuropathic pain, was produced by following the method of Bennett and Xie (Bennett, G., et al. Pain, 1988, 33, 87-107). After site sterilization and anesthetic procedures outline above were completed, a 1.5 cm incision is made at the mid-thigh level to expose the biceps femoris and gluteous superficialis (right side), which were then separated by blunt dissection. The common sciatic nerve was exposed, isolated, and loosely ligated by four 5-0 chromic gut ligatures with <1 mm spacing between each. The surgical site was closed in layers—muscle is closed with 6.0 absorbable sutures, and the skin closed with wound clips. Animals were allowed to recover on a warming plate and were returned to their home cages when fully ambulatory. Animals were not be used for testing until at least 10 days following surgery.
To measure mechanical sensitivity, tactile allodynia was measured using calibrated von Frey filaments (Stoelting, Wood Dale, Ill.) as described by Chaplan et al. (Chaplan S., et al. J of Neuroscience Methods 1994, 53, 55-63). Filament strengths used were: 0.4, 0.6, 1.0, 2, 4, 6, 8, and 15 g. Rats were placed into inverted individual plastic containers (20×12.5×20 cm) on top of a suspended wire mesh grid, and acclimated to the test chambers for at least 20 minutes. Filaments were applied perpendicular to the mid-plantar paw surface with enough force to cause slight buckling and held in place for 6-8 seconds. Positive responses included an abrupt withdrawal of the paw from the stimulus or flinching behavior immediately following removal of the stimulus. The maximum force applied was 15 g. The 50% paw withdrawal threshold (PWT) was calculated in grams (g) using the up-down method of Dixon (Dixon W. Ann Rev Pharmacol Toxicol 1980, 20, 441-462). […] All compounds were orally administered at 10 mg/kg in 10% dimethyl sulfoxide/polyethylene glycol at a volume of 2.0 mL/kg, and mechanical allodynia was determined 60 minutes following compound administration. […]

In the case of `O=C(c1ccc(F)c(C(F)(F)F)c1)N1CCN2C[C@H](Oc3cnc(C4CC4)cn3)C[C@H]2C1` [Example 55, [(7R,8aS)-7-[(5-cyclopropylpyrazin-2-yl)oxy]hexahydropyrrolo[1,2-a]-pyrazin-2(1H)-yl][4-fluoro-3-(trifluoromethyl)phenyl]methanone], the inhibition in vivo at 10 mg/kg was 31%. For the compound `O=C(c1cccc(C(F)(F)F)c1)N1CCN2C[C@H](Oc3cnc(C4CC4)cn3)C[C@H]2C1` [Example 68, [(7R,8aS)-7-[(5-cyclopropylpyrazin-2-yl)oxy]hexahydropyrrolo[1,2-a]-pyrazin-2(1H)-yl][3-(trifluoromethyl)phenyl]methanone], the inhibition in vivo at 10 mg/kg is 28%.

Take `O=C(c1cc(C(F)(F)F)ccc1Cl)N1CCN2C[C@H](Oc3cnc(C4CC4)cn3)C[C@H]2C1` [Example 72, [2-chloro-5-(trifluoromethyl)phenyl][(7R,8aS)-7-[(5-cyclopropylpyrazin-2-yl)oxy]hexahydropyrrolo[1,2-a]pyrazin-2(1H)-yl]methanone]: the inhibition in vivo at 10 mg/kg turned out to be 20%. In the case of `O=C(c1cc(F)c(Cl)cc1F)N1CCN2C[C@H](Oc3cnc(C4CC4)cn3)C[C@H]2C1` [Example 73, (4-chloro-2,5-difluorophenyl)[(7R,8aS)-7-[(5-cyclopropylpyrazin-2-yl)-oxy]hexahydropyrrolo[1,2-a]pyrazin-2(1H)-yl]methanone], the inhibition in vivo at 10 mg/kg was 48%. The figure for `O=C(c1cccc(C(F)(F)F)c1F)N1CCN2C[C@H](Oc3cnc(C4CC4)cn3)C[C@H]2C1` [Example 80, [(7R,8aS)-7-[(5-cyclopropylpyrazin-2-yl)oxy]hexahydropyrrolo[1,2-a]-pyrazin-2(1H)-yl][2-fluoro-3-(trifluoromethyl)phenyl]methanone] is 31%; for `O=C(c1cccc(OC(F)(F)F)c1)N1CCN2C[C@H](Oc3cnc(C4CC4)cn3)C[C@H]2C1` [Example 81, [(7R,8aS)-7-[(5-cyclopropylpyrazin-2-yl)oxy]hexahydropyrrolo[1,2-a]-pyrazin-2(1H)-yl][3-(trifluoromethoxy)phenyl]methanone] it is 39%.

`O=C(/C=C/c1ccc(F)c(C(F)(F)F)c1)N1CCN2C[C@H](Oc3cnc(C4CC4)cn3)C[C@H]2C1` [Example 154, (2E)-1-[(7R,8aS)-7-[(5-cyclopropylpyrazin-2-yl)oxy]hexahydropyrrolo[1,2-a]pyrazin-2(1H)-yl]-3-[4-fluoro-3-(trifluoromethyl)phenyl]prop-2-en-1-one]: the inhibition in vivo at 10 mg/kg was 0%.

Regarding `O=C(c1cccc(C(F)(F)F)c1)N1CC(=O)N2C[C@H](Oc3cnc(C4CC4)cn3)C[C@H]2C1` [Example 178, (7R,8aS)-7-[(5-cyclopropylpyrazin-2-yl)oxy]-2-[3-(trifluoromethyl)-benzoyl]hexahydropyrrolo[1,2-a]pyrazin-4(1H)-one], the inhibition in vivo at 10 mg/kg was found to be 28%. The figure for `CN[C@H](C(=O)N1CCN2C[C@H](Oc3cnc(C4CC4)cn3)C[C@H]2C1)c1cccc(C(F)(F)F)c1` [Example 186, (2S)-1-[(7R,8aS)-7-[(5-cyclopropylpyrazin-2-yl)oxy]hexahydropyrrolo[1,2-a]pyrazin-2(1H)-yl]-2-(methylamino)-2-[3-(trifluoromethyl)phenyl]ethanone] is 91%; for `CN[C@@H](C(=O)N1CCN2C[C@H](Oc3cnc(C4CC4)cn3)C[C@H]2C1)c1cccc(C(F)(F)F)c1` [Example 187, (2R)-1-[(7R,8aS)-7-[(5-cyclopropylpyrazin-2-yl)oxy]hexahydropyrrolo[1,2-a]pyrazin-2(1H)-yl]-2-(methylamino)-2-[3-(trifluoromethyl)phenyl]ethanone] it is 67%.
